US8969590B1, “Autotaxin inhibitors” (University of Memphis Research Foundation, priority 2007, dated 2015)

Key:
ATX (autotaxin) = target: T1, ATX (autotaxin) (Homo sapiens, UniProt Q13822); experiment: ATX inhibition assay: ATX-catalyzed FS-3 hydrolysis, fluorescence, concentrated conditioned medium from MDA MB-435 cells as ATX source; type: biochemical; conditions: for % ATX Activity at 10 μM: 10 μM compound, FS-3 substrate, read at 1 hour, normalized to vehicle control, mean ± S.D. of at least three wells
T1 construct: conditioned serum-free medium (CCM) from MDA MB-435 cells as the source of ATX; endogenous in cells; host or cells: MDA-MB-435 cells (secreted into serum-free conditioned medium, concentrated ~10 fold)
Procedure: The efficacy of these compounds was determined by evaluating fluorescence of autotaxin at specific wavelengths. The test protocol was as follows:
In terms of ATX inhibition analysis determinations, MDA-MB-435 cells were cultured at 37° C. and 5% CO2 in Dulbecco's Modified Eagle Medium (DMEM) (MediaTech, Herndon, Va.) containing 5% fetal bovine serum (Hyclone, Logan, Utah), 100 U/ml penicillin, 100 μg/ml streptomycin (Hyclone, Logan, Utah) and 292 μg/ml L-glutamine (Hyclone, Logan, Utah). Cells were grown to ˜80% confluence at which time the cells were washed twice with sterile phosphate buffered saline prior to the addition of serum free DMEM containing L-glutamine. Conditioned medium was collected after 24-30 hours, supplemented with 20% ethylene glycol and was clarified by centrifugation at 3000×g and 4° C. for 10 min. The media was concentrated ˜10 fold and buffer exchanged into Tris (50 mM, pH 7.4) containing 20% ethylene glycol using an Amicon 8050 cell fitted with a PM30 filter (Millipore, Billerica, Mass.). Aliquots of concentrated conditioned media were stored at 4° C. until needed.
ATX inhibition was assayed using FS-3 (Echelon Biosciences, Inc., Salt Lake City, Utah, USA) as a substrate and ˜10 times concentrated conditioned serum-free medium (CCM) from MDA MB-435 cells as the source of ATX. Assays were performed in 96-well plates with CCM comprising one-third of the total volume and final FS-3 and charcoal-stripped fatty acid free BSA concentrations of 1 and 30 μM in assay buffer (1 mM each CaCl2 and MgCl2, 5 mM KCl, 140 mM NaCl, 50 mM Tris pH 8.0). Fluorescence was read at 5 minute intervals by a Synergy2 system (BioTek, Winooski, Vt.) with excitation and emission wavelengths of 485 and 538 nm, respectively. Results are shown at 1 hour, at which point all fluorescence changes as a function of time were linear. Fluorescence readings were normalized to vehicle control after subtraction of fluorescence in the absence of CCM. Data are shown as the mean±S.D. of at least three wells.

ATX = ATX (Homo sapiens, UniProt Q13822); conditions: prior art; cited from earlier work

SMILES | % ATX Activity at 10 μM (ATX (autotaxin)) [%] | further results
O=C(O)c1cc(C(=O)O)cc(N2C(=O)c3ccc(C(=O)c4ccc5c(c4)C(=O)N(c4cc(C(=O)O)cc(C(=O)O)c4)C5=O)cc3C2=O)c1 [Compound 5186522] | 49 ± 10 | 
O=C(O)c1ccc(Oc2ccc(C(=O)c3ccc4c(c3)C(=O)N(c3cccc5ccccc35)C4=O)cc2)cc1 [Compound 5210574] | 31 ± 5 | 
O=C(NN1C(=O)c2ccc(C(=O)c3ccc4c(c3)C(=O)N(NC(=O)c3ccncc3)C4=O)cc2C1=O)c1ccncc1 [Compound 5538444] | 31 ± 4 | 
O=C(O)c1ccc(NC(=O)c2ccc3c(c2)C(=O)N(c2ccc(/N=N/c4ccccc4)cc2)C3=O)cc1 [Compound 5564676] |  | ATX inhibition (reduction of ATX-catalyzed FS-3 hydrolysis) (ATX (autotaxin); 10 μM concentration): no reduction levels at all
O=C(O)c1cccc(NC(=O)c2ccc3c(c2)C(=O)N(c2ccc(/N=N/c4ccccc4)cc2)C3=O)c1 [Compound 5564949] | 45 ± 10 | inhibition at 10 µM (ATX (autotaxin); 10 μM concentration, read-out: ATX inhibition (reduction of ATX-catalyzed FS-3 hydrolysis)): 51%
O=C(O)c1ccc2c(c1)C(=O)N(c1cccc(C(=O)Nc3cccc(Cl)c3)c1)C2=O [Compound 5711925] | 48 ± 5 | 
O=C(O)c1ccc(CN2C(=O)c3ccc(C(=O)c4ccc5c(c4)C(=O)N(Cc4ccc(C(=O)O)cc4)C5=O)cc3C2=O)cc1 [Compound 5761473] | 46 ± 6 | 
CCn1c(SCC(=O)Nc2ccc(C(C)=O)cc2)nc2nc3c(cc2c1=O)CCCC3 [Compound 7921385] | 21 ± 6 | 
N[C@@H](Cc1c[nH]cn1)C(=O)O [L-histidine] |  | Concentration required for ATX inhibition efficacy (ATX): millimolar concentrations were required for any efficacy
